Measured values published in the supplement of paper PMC10307832.

Key:
Experiment in all cases: relative viability (nuclei count vs DMSO), 5 days (fraction); higher = more cells survive
LU99A = test system: LU99A
Method in brief: (§1)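 After 5 days of treatment, lung cancer cells in 1536-well plates were fixed and stained in a single step (final 0.05% Triton X-100, 1% formaldehyde, 1 ug/ml Hoechst) and their nuclei counted on 4× images. Treatment had been applied by pin tool the day after seeding as one drug alone or as a fixed anchor-drug dose with five library-drug doses (not always all listed) in √10 steps. Relative viability is the nuclei count of treated wells divided by that of vehicle wells, and values are medians of duplicate plates.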

NCI-H2170 = test system: NCI-H2170
Method in brief: as §1

NCI-H650 = test system: NCI-H650
Method in brief: as §1

201T = test system: 201T
Method in brief: as §1

NCI-H1437 = test system: NCI-H1437
Method in brief: as §1

NCI-H647 = test system: NCI-H647
Method in brief: as §1

PC-3 [JPC-3] = test system: PC-3 [JPC-3]
Method in brief: as §1

NCI-H2085 = test system: NCI-H2085
Method in brief: as §1

SW 1573 = test system: SW 1573
Method in brief: as §1

EPLC-272H = test system: EPLC-272H
Method in brief: as §1

H3255 = test system: H3255
Method in brief: as §1

HCC-44 = test system: HCC-44
Method in brief: as §1

NCI-H1666 = test system: NCI-H1666
Method in brief: as §1

EKVX = test system: EKVX
Method in brief: as §1

COR-L 105 = test system: COR-L 105
Method in brief: as §1

NCI-H1975 = test system: NCI-H1975
Method in brief: as §1

NCI-H2342 = test system: NCI-H2342
Method in brief: as §1

LOU-NH91 = test system: LOU-NH91
Method in brief: as §1

BEN = test system: BEN
Method in brief: as §1

HCC-827 = test system: HCC-827
Method in brief: as §1

NCI-H2087 = test system: NCI-H2087
Method in brief: as §1

LCLC-97TM1 = test system: LCLC-97TM1
Method in brief: as §1

`CCN(CC)CCCCNc1ncc2cc(-c3cc(OC)cc(OC)c3)c(NC(=O)NC(C)(C)C)nc2n1` + CCNC(=O)c1noc(-c2cc(C(C)C)c(O)cc2O)c1-c1ccc(CN2CCOCC2)cc1 [Luminespib] (partner 0.01 µM) gave a relative viability (LU99A; first compound 0.01 µM) of 0.301, a relative viability (LU99A; first compound 0.03162 µM) of 0.251 and a relative viability (LU99A; first compound 0.1 µM) of 0.197. For the same compound, the relative viability (LU99A; first compound 0.3162 µM) was 0.25, the relative viability (LU99A; first compound 1 µM) was 0.27 and the relative viability (NCI-H2170; first compound 0.01 µM) was 0.446. It also gave a relative viability (NCI-H2170; first compound 0.03162 µM) of 0.857, a relative viability (NCI-H2170; first compound 0.1 µM) of 0.668 and a relative viability (NCI-H2170; first compound 0.3162 µM) of 0.801. It also gave a relative viability (NCI-H2170; first compound 1 µM) of 0.937, a relative viability (NCI-H650; first compound 0.01 µM) of 0.74 and a relative viability (NCI-H650; first compound 0.03162 µM) of 0.729. It also gave a relative viability (NCI-H650; first compound 0.1 µM) of 0.736, a relative viability (NCI-H650; first compound 0.3162 µM) of 0.864 and a relative viability (NCI-H650; first compound 1 µM) of 0.848. The relative viability (201T; first compound 0.01 µM) was 1.09, the relative viability (201T; first compound 0.03162 µM) was 0.955 and the relative viability (201T; first compound 0.1 µM) was 1.11. It also gave a relative viability (201T; first compound 0.3162 µM) of 1.08, a relative viability (201T; first compound 1 µM) of 0.932 and a relative viability (NCI-H1437; first compound 0.01 µM) of 1.18. For the same compound, the relative viability (NCI-H1437; first compound 0.03162 µM) was 1.1, the relative viability (NCI-H1437; first compound 0.1 µM) was 1.26 and the relative viability (NCI-H1437; first compound 0.3162 µM) was 1.1. For the same compound, the relative viability (NCI-H1437; first compound 1 µM) was 1.05, the relative viability (NCI-H647; first compound 0.01 µM) was 0.163 and the relative viability (NCI-H647; first compound 0.03162 µM) was 0.205. The relative viability (NCI-H647; first compound 0.1 µM) was 0.222, the relative viability (NCI-H647; first compound 0.3162 µM) was 0.205 and the relative viability (NCI-H647; first compound 1 µM) was 0.148. For the same compound, the relative viability (PC-3 [JPC-3]; first compound 0.01 µM) was 0.814, the relative viability (PC-3 [JPC-3]; first compound 0.03162 µM) was 0.738 and the relative viability (PC-3 [JPC-3]; first compound 0.1 µM) was 0.725. The relative viability (PC-3 [JPC-3]; first compound 0.3162 µM) was 0.746, the relative viability (PC-3 [JPC-3]; first compound 1 µM) was 0.662 and the relative viability (NCI-H2085; first compound 0.01 µM) was 0.419. For the same compound, the relative viability (NCI-H2085; first compound 0.03162 µM) was 0.424, the relative viability (NCI-H2085; first compound 0.1 µM) was 0.402 and the relative viability (NCI-H2085; first compound 0.3162 µM) was 0.405. The relative viability (NCI-H2085; first compound 1 µM) was 0.458, the relative viability (SW 1573; first compound 0.01 µM) was 0.238 and the relative viability (SW 1573; first compound 0.03162 µM) was 0.297. For the same compound, the relative viability (SW 1573; first compound 0.1 µM) was 0.239, the relative viability (SW 1573; first compound 0.3162 µM) was 0.177 and the relative viability (SW 1573; first compound 1 µM) was 0.172. For the same compound, the relative viability (EPLC-272H; first compound 0.01 µM) was 0.26, the relative viability (EPLC-272H; first compound 0.03162 µM) was 0.266 and the relative viability (EPLC-272H; first compound 0.1 µM) was 0.204. For the same compound, the relative viability (EPLC-272H; first compound 0.3162 µM) was 0.219, the relative viability (EPLC-272H; first compound 1 µM) was 0.329 and the relative viability (H3255; first compound 0.01 µM) was 0.73. It also gave a relative viability (H3255; first compound 0.03162 µM) of 0.824, a relative viability (H3255; first compound 0.1 µM) of 0.915 and a relative viability (H3255; first compound 0.3162 µM) of 0.992. It also gave a relative viability (H3255; first compound 1 µM) of 0.833, a relative viability (HCC-44; first compound 0.01 µM) of 1.07 and a relative viability (HCC-44; first compound 0.03162 µM) of 1.06. The relative viability (HCC-44; first compound 0.1 µM) was 0.801, the relative viability (HCC-44; first compound 0.3162 µM) was 1.06 and the relative viability (HCC-44; first compound 1 µM) was 0.866. For the same compound, the relative viability (NCI-H1666; first compound 0.01 µM) was 0.944, the relative viability (NCI-H1666; first compound 0.03162 µM) was 0.971 and the relative viability (NCI-H1666; first compound 0.1 µM) was 1.04. It also gave a relative viability (NCI-H1666; first compound 0.3162 µM) of 1.02, a relative viability (NCI-H1666; first compound 1 µM) of 0.794 and a relative viability (EKVX; first compound 0.01 µM) of 0.842. The relative viability (EKVX; first compound 0.03162 µM) was 0.909, the relative viability (EKVX; first compound 0.1 µM) was 0.934 and the relative viability (EKVX; first compound 0.3162 µM) was 0.971. It also gave a relative viability (EKVX; first compound 1 µM) of 0.83, a relative viability (COR-L 105; first compound 0.01 µM) of 0.909 and a relative viability (COR-L 105; first compound 0.03162 µM) of 0.698. The relative viability (COR-L 105; first compound 0.1 µM) was 0.73, the relative viability (COR-L 105; first compound 0.3162 µM) was 0.795 and the relative viability (COR-L 105; first compound 1 µM) was 0.68. The relative viability (NCI-H1975; first compound 0.01 µM) was 0.161, the relative viability (NCI-H1975; first compound 0.03162 µM) was 0.148 and the relative viability (NCI-H1975; first compound 0.1 µM) was 0.201. It also gave a relative viability (NCI-H1975; first compound 0.3162 µM) of 0.366, a relative viability (NCI-H1975; first compound 1 µM) of 0.199 and a relative viability (NCI-H2342; first compound 0.01 µM) of 0.775. The relative viability (NCI-H2342; first compound 0.03162 µM) was 0.833, the relative viability (NCI-H2342; first compound 0.1 µM) was 0.768 and the relative viability (NCI-H2342; first compound 0.3162 µM) was 0.633. The relative viability (NCI-H2342; first compound 1 µM) was 0.811, the relative viability (LOU-NH91; first compound 0.01 µM) was 0.338 and the relative viability (LOU-NH91; first compound 0.03162 µM) was 0.364. It also gave a relative viability (LOU-NH91; first compound 0.1 µM) of 0.36, a relative viability (LOU-NH91; first compound 0.3162 µM) of 0.421 and a relative viability (LOU-NH91; first compound 1 µM) of 0.356. For the same compound, the relative viability (BEN; first compound 0.01 µM) was 0.249, the relative viability (BEN; first compound 0.03162 µM) was 0.243 and the relative viability (BEN; first compound 0.1 µM) was 0.545. It also gave a relative viability (BEN; first compound 0.3162 µM) of 0.496, a relative viability (BEN; first compound 1 µM) of 0.297 and a relative viability (HCC-827; first compound 0.01 µM) of 0.675. It also gave a relative viability (HCC-827; first compound 0.03162 µM) of 0.891, a relative viability (HCC-827; first compound 0.1 µM) of 0.77 and a relative viability (HCC-827; first compound 0.3162 µM) of 0.774. For the same compound, the relative viability (HCC-827; first compound 1 µM) was 0.587, the relative viability (NCI-H2087; first compound 0.01 µM) was 0.172 and the relative viability (NCI-H2087; first compound 0.03162 µM) was 0.154. It also gave a relative viability (NCI-H2087; first compound 0.1 µM) of 0.161, a relative viability (NCI-H2087; first compound 0.3162 µM) of 0.177 and a relative viability (NCI-H2087; first compound 1 µM) of 0.158. The relative viability (LCLC-97TM1; first compound 0.01 µM) was 0.743, the relative viability (LCLC-97TM1; first compound 0.03162 µM) was 0.867 and the relative viability (LCLC-97TM1; first compound 0.1 µM) was 1.02. The relative viability (LCLC-97TM1; first compound 0.3162 µM) was 0.818 and the relative viability (LCLC-97TM1; first compound 1 µM) was 0.775.
